pKi: −log10 of the molar value.
Target: T1, human NK3 receptor (Homo sapiens, UniProt P29371)
T1 construct: expressed in transfected cells; host or cells: HEK293 cells (transient expression), membranes
T1 sequence (P29371 1-465): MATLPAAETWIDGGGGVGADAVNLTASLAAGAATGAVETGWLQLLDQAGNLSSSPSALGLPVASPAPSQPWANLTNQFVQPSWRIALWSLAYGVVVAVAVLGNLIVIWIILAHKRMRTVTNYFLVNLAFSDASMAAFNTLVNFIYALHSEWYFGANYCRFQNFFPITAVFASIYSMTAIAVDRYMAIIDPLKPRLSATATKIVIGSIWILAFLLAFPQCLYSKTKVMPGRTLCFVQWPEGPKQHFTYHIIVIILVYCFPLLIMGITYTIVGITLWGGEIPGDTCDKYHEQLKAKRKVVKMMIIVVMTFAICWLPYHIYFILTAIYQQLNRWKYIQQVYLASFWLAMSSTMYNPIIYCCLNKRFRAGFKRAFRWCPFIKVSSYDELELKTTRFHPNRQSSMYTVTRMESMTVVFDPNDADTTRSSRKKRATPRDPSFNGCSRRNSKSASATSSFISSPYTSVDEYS
Experiment: [3H]SR142801 competition binding assay
Settings: membrane from HEK293 cells transiently expressing recombinant human NK3 receptor; radioligand [3H]SR142801; Ki from IC50 by Cheng-Prussoff equation
Procedure: [^3H]SR142801 Competition Binding Assay
hNK3 receptor binding experiment were performed using [^3H]SR142801 (Catalog No. TRK1035, specific activity: 74.0 Ci/mmol, Amersham, GE Healthcare UK limited, Buckinghamshire, UK) and membrane isolated from HEK293 cells transiently expressing recombinant human NK3 receptor. After thawing, the membrane homogenates were centrifuged at 48,000×g for 10 min at 4° C., the pellets were resuspended in the 50 mM Tris-HCl, 4 mM MnCl2, 1 μM phosphoramidon, 0.1% BSA binding buffer at pH 7.4 to a final assay concentration of 5 μg protein/well. […] At the end of the incubation, membranes were filtered onto unitfilter (96-well white microplate with bonded GF/C filter preincubated 1 h in 0.3% PEI+0.3% BSA, Packard BioScience, Meriden, Conn.) with a Filtermate 196 harvester (Packard BioScience) and washed 4 times with ice-cold 50 mM Tris-HCl, pH 7.4 buffer. Nonspecific binding was measured in the presence of 10 μM SB222200 for both radioligands. The radioactivity on the filter was counted (5 min) on a Packard Top-count microplate scintillation counter with quenching correction after addition of 45 μl of microscint 40 (Canberra Packard S. A., Zürich, Switzerland) and shaking for 1 h. Inhibition curves were fitted according to the Hill equation: y=100/(1+(x/IC50)^nH), where nH=slope factor using Excel-fit 4 software (Microsoft). IC50 values were derived from the inhibition curve and the affinity constant (Ki) values were calculated using the Cheng-Prussoff equation Ki=IC50/(1+[L]/KD) where [L] is the concentration of radioligand and KD is its dissociation constant at the receptor, derived from the saturation isotherm. All experiments were performed in duplicate and the mean±standard error (SEM) of the individual Ki values was calculated.

| pKi | SMILES |
| --- | --- |
| 8.62 | CS(=O)(=O)N1CCN(C(=O)N2C[C@H](CSc3ccc(C(F)(F)F)cn3)[C@@H](c3ccc(Cl)c(Cl)c3)C2)CC1 (racemic) [Example 5, (3SR,4RS)-[3-(3,4-Dichloro-phenyl)-4-(5-trifluoromethyl-pyridin-2-ylsulfanylmethyl)-pyrrolidin-1-yl]-(4-methanesulfonyl-piperazin-1-yl)-methanone] |
| 7.44 | CS(=O)(=O)N1CCN(C(=O)N2C[C@H](CNc3ccc(Cl)cn3)[C@@H](c3ccc(Cl)c(Cl)c3)C2)CC1 (racemic) [Example 30] |
| 7.03 | CS(=O)(=O)N1CCN(C(=O)N2C[C@@H](CNc3ccc(C(F)(F)F)cn3)[C@H](c3ccc(Cl)c(Cl)c3)C2)CC1 [Example 14, (3R,4R)-{3-(3,4-Dichloro-phenyl)-4-[(5-trifluoromethyl-pyridin-2-ylamino)-methyl]-pyrrolidin-1-yl}-(4-methanesulfonyl-piperazin-1-yl)-methanone] |
| 8.08 | CN(C[C@H]1CN(C(=O)C2CCN(C(=O)C3(C)CC3)CC2)C[C@@H]1c1ccc(Cl)c(Cl)c1)c1ccc(C(F)(F)F)cn1 [Example 62, [4-((3S,4S)-3-(3,4-Dichloro-phenyl)-4-{[methyl-(5-trifluoromethyl-pyridin-2-yl)-amino]-methyl}-pyrrolidine-1-carbonyl)-piperidin-1-yl]-(1-methyl-cyclopropyl)-methanone] |
| 7.21 | CS(=O)(=O)N1CCN(C(=O)N2C[C@H](CSc3ccc(C#N)cc3)[C@@H](c3ccc(Cl)c(Cl)c3)C2)CC1 (racemic) [Example 4, (3SR,4RS)-4-[4-(3,4-Dichloro-phenyl)-1-(4-methanesulfonyl-piperazine-1-carbonyl)-pyrrolidin-3-ylmethylsulfanyl]-benzonitrile] |
| 8.66 | CS(=O)(=O)N1CCN(C(=O)N2C[C@H](CSc3ccc(Cl)cn3)[C@@H](c3ccc(Cl)c(Cl)c3)C2)CC1 (racemic) [Example 6, (3SR,4RS)-[3-(5-Chloro-pyridin-2-ylsulfanylmethyl)-4-(3,4-dichloro-phenyl)-pyrrolidin-1-yl]-(4-methanesulfonyl-piperazin-1-yl)-methanone] |
| 7.34 | CS(=O)(=O)N1CCN(C(=O)N2C[C@H](CSc3ccc(Cl)cc3)[C@@H](c3ccc(Cl)c(Cl)c3)C2)CC1 (racemic) [Example 2] |
| 7.15 | CN(C[C@H]1CN(C(=O)C2CCN(C(=O)C3(C)CC3)CC2)C[C@@H]1c1ccc(F)cc1)c1ncc(C(F)(F)F)cn1 (racemic) [Example 47] |
| 8.92 | Cc1cc(C(=O)N2C[C@H](CNc3ncc(C(F)(F)F)cn3)[C@@H](c3ccc(Cl)c(Cl)c3)C2)cnn1 [Example 58, {(3S,4S)-3-(3,4-Dichloro-phenyl)-4-[(5-trifluoromethyl-pyrimidin-2-ylamino)-methyl]-pyrrolidin-1-yl}-(6-methyl-pyridazin-4-yl)-methanone] |
| 7.17 | CC(Nc1ccc(C#N)cn1)[C@H]1CN(C(=O)N2CCN(S(C)(=O)=O)CC2)C[C@@H]1c1ccc(Cl)c(Cl)c1 (mixture of isomers) [Example 36, (3SR,4RS) 6-{1-(RS)-[4-(3,4-Dichloro-phenyl)-1-(4-methanesulfonyl-piperazine-1-carbonyl)-pyrrolidin-3-yl]-ethylamino}-nicotinonitrile and (3SR,4RS) 6-{1-(SR)-[4-(3,4-Dichloro-phenyl)-1-(4-methanesulfonyl-piperazine-1-carbonyl)-pyrrolidin-3-yl]-ethylamino}-nicotinonitrile] |
| 7.16 | CN(C[C@H]1CN(C(=O)C2CCN(C(=O)C3(C)CC3)CC2)C[C@@H]1c1ccc(Cl)cc1)c1ccc(C#N)cn1 [Example 51, 6-({(3S,4S)-4-(4-Chloro-phenyl)-1-[1-(1-methyl-cyclopropanecarbonyl)-piperidine-4-carbonyl]-pyrrolidin-3-ylmethyl}-methyl-amino)-nicotinonitrile] |
| 7.15 | CS(=O)(=O)N1CCN(C(=O)N2C[C@H](CNc3ccc(C#N)cn3)[C@@H](c3ccc(Cl)c(Cl)c3)C2)CC1 [Example 8] |
| 7.10 | CS(=O)(=O)N1CCN(C(=O)N2CC(CNc3ncc(C#N)cn3)C(c3ccc(Cl)c(Cl)c3)C2)CC1 (racemic) [Example 31, (3SR,4RS)-2-{[4-(3,4-Dichloro-phenyl)-1-(4-methanesulfonyl-piperazine-1-carbonyl)-pyrrolidin-3-ylmethyl]-amino}-pyrimidine-5-carbonitrile] |
| 7.10 | CN(C[C@H]1CN(C(=O)N2CCN(S(C)(=O)=O)CC2)C[C@@H]1c1ccc(Cl)c(Cl)c1)c1ccc(C(F)(F)F)cn1 (racemic) [Example 15] |
| 8.21 | CC1(C(=O)N2CCC(C(=O)N3C[C@H](CNc4ncc(C(F)(F)F)cn4)[C@@H](c4ccc(Cl)c(Cl)c4)C3)CC2)CC1 (racemic) [Example 34] |
| 7.01 | O=C(c1ccnnc1)N1C[C@H](CNc2ccc(C(F)(F)F)cn2)[C@@H](c2ccc(Cl)c(Cl)c2)C1 (racemic) [Example 22] |
| 7.99 | CC(=O)N1CCC(C(=O)N2C[C@H](CNc3ccc(C(F)(F)F)cn3)[C@@H](c3ccc(Cl)c(Cl)c3)C2)CC1 (racemic) [Example 19] |
| 7.61 | Cc1cc(C(=O)N2C[C@H](CNc3ncc(Cl)cn3)[C@@H](c3ccc(Cl)c(Cl)c3)C2)cnn1 (racemic) [Example 27] |
| 7.96 | Cc1cc(C(=O)N2C[C@H](CNc3ccc(C(F)(F)F)cn3)[C@@H](c3ccc(Cl)c(Cl)c3)C2)c(C)nn1 (racemic) [Example 23] |
| 7.50 | CN(C[C@H]1CN(C(=O)C2CCN(C(=O)C3(C)CC3)CC2)C[C@@H]1c1ccc(Cl)c(Cl)c1)c1ccc(C#N)cn1 [Example 64, 6-({(3S,4S)-4-(3,4-Dichloro-phenyl)-1-[1-(1-methyl-cyclopropanecarbonyl)-piperidine-4-carbonyl]-pyrrolidin-3-ylmethyl}-methyl-amino)-nicotinonitrile] |
| 8.05 | CC1(C(=O)N2CCC(C(=O)N3C[C@H](CNc4ccc(C(F)(F)F)cn4)[C@@H](c4ccc(Cl)c(Cl)c4)C3)CC2)CC1 (racemic) [Example 21] |
| 7.71 | CC(=O)N1CCC(C(=O)N2C[C@H](CNc3ncc(Cl)cn3)[C@@H](c3ccc(Cl)c(Cl)c3)C2)CC1 (racemic) [Example 25] |
| 7.06 | CC1(C(=O)N2CCC(C(=O)N3CC(CNc4ccc(Cl)cn4)C(c4ccc(Cl)cc4)C3)CC2)CC1 (racemic) [Example 41, (3SR,4RS) {3-(4-Chloro-phenyl)-4-[(5-chloro-pyridin-2-ylamino)-methyl]-pyrrolidin-1-yl}-[1-(1-methyl-cyclopropanecarbonyl)-piperidin-4-yl]-methanone] |
| 7.64 | CC1(C(=O)N2CCC(C(=O)N3C[C@H](CNc4ncc(C(F)(F)F)cn4)[C@@H](c4ccc(F)cc4)C3)CC2)CC1 (racemic) [Example 46] |
| 7.65 | C[C@@H](Nc1ccc(C(F)(F)F)cn1)[C@H]1CN(C(=O)N2CCN(S(C)(=O)=O)CC2)C[C@@H]1c1ccc(Cl)c(Cl)c1 (racemic) [Example 38, (3SR,4RS) {3-(3,4-Dichloro-phenyl)-4-[1-(RS)-(5-trifluoromethyl-pyridin-2-ylamino)-ethyl]-pyrrolidin-1-yl}-(4-methanesulfonyl-piperazin-1-yl)-methanone] |
| 8.12 | CC(=O)N1CCC(C(=O)N2C[C@H](CNc3ncc(C(F)(F)F)cn3)[C@@H](c3ccc(Cl)c(Cl)c3)C2)CC1 (racemic) [Example 33] |
| 7.23 | CS(=O)(=O)N1CCN(C(=O)N2C[C@H](CNc3ccc(C(F)(F)F)cc3)[C@@H](c3ccc(Cl)c(Cl)c3)C2)CC1 (racemic) [Example 28] |
| 7.33 | N#Cc1ccc(C(=O)N2C[C@H](CNc3ncc(Cl)cn3)[C@@H](c3ccc(Cl)c(Cl)c3)C2)cn1 (racemic) [Example 26] |
| 7.78 | CC1(C(=O)N2CCC(C(=O)N3C[C@H](CNc4ncc(Cl)cn4)[C@@H](c4ccc(Cl)c(Cl)c4)C3)CC2)CC1 (racemic) [Example 24] |
| 7.30 | CS(=O)(=O)N1CCN(C(=O)N2C[C@H](CSc3ccc(C(F)(F)F)cc3)[C@@H](c3ccc(Cl)c(Cl)c3)C2)CC1 (racemic) [Example 1, (3SR,4RS)-[3-(3,4-Dichloro-phenyl)-4-(4-trifluoromethyl-phenylsulfanylmethyl)-pyrrolidin-1-yl]-(4-methanesulfonyl-piperazin-1-yl)-methanone] |
